According to US5358951A, “Angiotensin II receptor blocking 2, 3, 6 substituted quinazolinones” (American Cyanamid Company, priority 1993, dated 1994):

System: vasopressor response of angiotensin II
Assay: AII Challenge: antagonism of angiotensin II vasopressor response;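 for Response Average Change: post-dose Angiotensin II-evoked rise in systolic blood pressure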
Format: in vivo
Details: for inhibition in vivo at 3 mg/kg / inhibition in vivo at 5 mg/kg: Rattus norvegicus; for inhibition in vivo at 3 mg/kg: iv; for inhibition in vivo at 5 mg/kg: po
Excerpt: Conscious Male Okamoto-Aoki SHR, 16-20 weeks old, weighing approximately 330 g are purchased from Charles River Labs (Wilmington, Mass.). Conscious rats are restrained in a supine position with elastic tape. The area at the base of the tail is locally anesthetized by subcutaneous infiltration with 2% procaine. The ventral caudal artery and vein are isolated, and a cannula made of polyethylene (PE) 10-20 tubing (fused together by heat) is passed into the lower abdominal aorta and vena cava, respectively. The cannula is secured, heparinized (1,000 I.U./ml), sealed and the wound is closed. The animals are placed in plastic restraining cages in an upright position. The cannula is attached to a Statham P23 Db pressure transducer, and pulsatile blood pressure is recorded to 10-15 minutes with a Gould Brush recorder. (Chan et al., (Drug Development Res., 18:75-94, 1989). Angiotensin II (human sequence, Sigma Chem. Co., St. Louis, Mo.) of 0.05 and 0.1 ug/kg i.v. is injected into all rats (predosing response). Then a test compound, vehicle or a known angiotensin II antagonist is administered i.v., i.p. or orally to each set of rats. The two doses of angiotensin II are given to each rat again at 30, 60, 90, 120, 180, 240 and 300 minutes post dosing the compound or vehicle. The vasopressor response of angiotensin II is measured for the increase in systolic blood pressure in mmHg. The percentage of antagonism or blockade of the vasopressor response of angiotensin II by a compound is calculated using the vasopressor response (increase in systolic blood pressure) of angiotensin II of each rat predosing the compound as 100%.

Compound: CCCCc1nc2ccc([C@@H]3C[C@H]4CCCN4O3)cc2c(=O)n1Cc1ccc(-c2ccccc2-c2nnn[nH]2)cc1 (racemic) [Example 57, Cis-(+/-)-2-Butyl-6-(hexahydropyrrolo[1,2-b]isoxazol-2-yl)-3-[[2'-(1H-tetrazol-5-yl)[1,1'-biphenyl]-4-yl]methyl]-4(3H)-quinazolinone]
- Response Average Change (3 mg/kg I.V., AII 0.05 mcg/kg IV, 30 min post dose): 12.5 mmHg
- Response Average Change (3 mg/kg I.V., AII 0.05 mcg/kg IV, 60 min post dose): 22.5 mmHg
- Response Average Change (3 mg/kg I.V., AII 0.05 mcg/kg IV, 90 min post dose): 20 mmHg
- Response Average Change (3 mg/kg I.V., AII 0.05 mcg/kg IV, 120 min post dose): 17.5 mmHg
- Response Average Change (3 mg/kg I.V., AII 0.05 mcg/kg IV, 180 min post dose): 36 mmHg
- Response Average Change (3 mg/kg I.V., AII 0.1 mcg/kg IV, 30 min post dose): 7.5 mmHg
- Response Average Change (3 mg/kg I.V., AII 0.1 mcg/kg IV, 60 min post dose): 15 mmHg
- Response Average Change (3 mg/kg I.V., AII 0.1 mcg/kg IV, 90 min post dose): 20 mmHg
- Response Average Change (3 mg/kg I.V., AII 0.1 mcg/kg IV, 120 min post dose): 37.5 mmHg
- Response Average Change (3 mg/kg I.V., AII 0.1 mcg/kg IV, 180 min post dose): 44 mmHg
- Response Average Change (5 mg/kg P.O., AII 0.05 mcg/kg IV, 30 min post dose): 31.5 mmHg
- Response Average Change (5 mg/kg P.O., AII 0.05 mcg/kg IV, 60 min post dose): 25 mmHg
- Response Average Change (5 mg/kg P.O., AII 0.05 mcg/kg IV, 90 min post dose): 32.5 mmHg
- Response Average Change (5 mg/kg P.O., AII 0.05 mcg/kg IV, 120 min post dose): 20 mmHg
- Response Average Change (5 mg/kg P.O., AII 0.05 mcg/kg IV, 180 min post dose): 20 mmHg
- Response Average Change (5 mg/kg P.O., AII 0.05 mcg/kg IV, 240 min post dose): 20 mmHg
- Response Average Change (5 mg/kg P.O., AII 0.05 mcg/kg IV, 300 min post dose): 22.5 mmHg
- Response Average Change (5 mg/kg P.O., AII 0.1 mcg/kg IV, 30 min post dose): 22.5 mmHg
- Response Average Change (5 mg/kg P.O., AII 0.1 mcg/kg IV, 60 min post dose): 29 mmHg
- Response Average Change (5 mg/kg P.O., AII 0.1 mcg/kg IV, 90 min post dose): 29.5 mmHg
- Response Average Change (5 mg/kg P.O., AII 0.1 mcg/kg IV, 120 min post dose): 25 mmHg
- Response Average Change (5 mg/kg P.O., AII 0.1 mcg/kg IV, 180 min post dose): 41.5 mmHg
- Response Average Change (5 mg/kg P.O., AII 0.1 mcg/kg IV, 240 min post dose): 40 mmHg
- Response Average Change (5 mg/kg P.O., AII 0.1 mcg/kg IV, 300 min post dose): 42.5 mmHg
- inhibition in vivo at 3 mg/kg (0.5 h, 3 mg/kg I.V., AII 0.05 mcg/kg IV, 30 min post dose): 67%
- inhibition in vivo at 3 mg/kg (0.5 h, 3 mg/kg I.V., AII 0.1 mcg/kg IV, 30 min post dose): 81%
- inhibition in vivo at 3 mg/kg (1 h, 3 mg/kg I.V., AII 0.05 mcg/kg IV, 60 min post dose): 40%
- inhibition in vivo at 3 mg/kg (1 h, 3 mg/kg I.V., AII 0.1 mcg/kg IV, 60 min post dose): 63%
- inhibition in vivo at 3 mg/kg (2 h, 3 mg/kg I.V., AII 0.05 mcg/kg IV, 120 min post dose): 57%
- inhibition in vivo at 3 mg/kg (2 h, 3 mg/kg I.V., AII 0.1 mcg/kg IV, 120 min post dose): 17%
- inhibition in vivo at 3 mg/kg (3 h, 3 mg/kg I.V., AII 0.05 mcg/kg IV, 180 min post dose): 11%
- inhibition in vivo at 3 mg/kg (3 h, 3 mg/kg I.V., AII 0.1 mcg/kg IV, 180 min post dose): 2%
- inhibition in vivo at 3 mg/kg ([…], 3 mg/kg I.V., AII 0.05 mcg/kg IV, 90 min post dose): 47%
- inhibition in vivo at 3 mg/kg ([…], 3 mg/kg I.V., AII 0.1 mcg/kg IV, 90 min post dose): 50%
- inhibition in vivo at 5 mg/kg (0.5 h, 5 mg/kg P.O., AII 0.05 mcg/kg IV, 30 min post dose): 26%
- inhibition in vivo at 5 mg/kg (0.5 h, 5 mg/kg P.O., AII 0.1 mcg/kg IV, 30 min post dose): 47%
- inhibition in vivo at 5 mg/kg (1 h, 5 mg/kg P.O., AII 0.05 mcg/kg IV, 60 min post dose): 41%
- inhibition in vivo at 5 mg/kg (1 h, 5 mg/kg P.O., AII 0.1 mcg/kg IV, 60 min post dose): 32%
- inhibition in vivo at 5 mg/kg (2 h, 5 mg/kg P.O., AII 0.05 mcg/kg IV, 120 min post dose): 53%
- inhibition in vivo at 5 mg/kg (2 h, 5 mg/kg P.O., AII 0.1 mcg/kg IV, 120 min post dose): 41%
- inhibition in vivo at 5 mg/kg (3 h, 5 mg/kg P.O., AII 0.05 mcg/kg IV, 180 min post dose): 53%
- inhibition in vivo at 5 mg/kg (3 h, 5 mg/kg P.O., AII 0.1 mcg/kg IV, 180 min post dose): 2%
- inhibition in vivo at 5 mg/kg (4 h, 5 mg/kg P.O., AII 0.05 mcg/kg IV, 240 min post dose): 53%
- inhibition in vivo at 5 mg/kg (4 h, 5 mg/kg P.O., AII 0.1 mcg/kg IV, 240 min post dose): 6%
- inhibition in vivo at 5 mg/kg (5 h, 5 mg/kg P.O., AII 0.05 mcg/kg IV, 300 min post dose): 47%
- inhibition in vivo at 5 mg/kg (5 h, 5 mg/kg P.O., AII 0.1 mcg/kg IV, 300 min post dose): 0%
- inhibition in vivo at 5 mg/kg ([…], 5 mg/kg P.O., AII 0.05 mcg/kg IV, 90 min post dose): 24%
- inhibition in vivo at 5 mg/kg ([…], 5 mg/kg P.O., AII 0.1 mcg/kg IV, 90 min post dose): 31%
